The values below come from PubChem BioAssay (NCI).

Structures are written as SMILES.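 Grown in 96-well plates, cells were treated for 48 hours with each compound at five concentrations. Insufficient inhibition: endpoint recorded as highest concentration tested. Here, GI50 denotes the concentration required for 50% inhibition of growth. TGI is the concentration that stops growth completely.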

Some test systems named below: NCI-H226 lung; K-562 leukemia; MOLT-4 leukemia; OVCAR-5 ovarian; TK-10 renal; ACHN renal; SK-MEL-5 melanoma; U251 CNS; IGROV1 ovarian; OVCAR-8 ovarian.
Test in all cases: inhibition of tumour cell growth, NCI panel, 48 h

For the compound `CSCC1CC(c2ccc(Cl)cc2)=NO1` (stereo not given), the TGI in the experiment with NCI-H226 lung, in the experiment on K-562 leukemia, in the experiment on MOLT-4 leukemia, in the experiment with OVCAR-5 ovarian, in the experiment with TK-10 renal and in the experiment with ACHN renal was above 100 µM in each case. For the same compound, the TGI with SK-MEL-5 melanoma, in the experiment on U251 CNS, in the experiment on IGROV1 ovarian and in the experiment with OVCAR-8 ovarian was above 100 µM in each case.

Consider `O=c1cc(-c2ccccc2)[nH]c2cc(O)ccc12`, for which the TGI is above 100 µM in the experiment with NCI-H226 lung; 39.2 µM with K-562 leukemia; 54.7 µM with MOLT-4 leukemia; above 100 µM in the experiment with OVCAR-5 ovarian; above 100 µM in the experiment with TK-10 renal; 53.7 µM with ACHN renal. In addition, the TGI in the experiment with SK-MEL-5 melanoma is 83.4 µM; with U251 CNS it was 90.7 µM; in the experiment with IGROV1 ovarian it was 65.6 µM; in the experiment on OVCAR-8 ovarian, above 100 µM.

In the case of `N/C(=N\N=C\c1ccc(-c2ccccc2)cc1)N[N+](=O)[O-]`, the GI50 in the experiment on NCI-H226 lung was above 28.1 µM; in the experiment on K-562 leukemia it was 0.481 µM; with MOLT-4 leukemia, 5.76 µM; in the experiment on OVCAR-5 ovarian, above 100 µM; in the experiment on TK-10 renal it was above 100 µM; in the experiment on ACHN renal, above 100 µM. Besides, the GI50 in the experiment on SK-MEL-5 melanoma was 3.52 µM; with U251 CNS, 3.05 µM; in the experiment on IGROV1 ovarian it was 28 µM; in the experiment on OVCAR-8 ovarian it was 5.61 µM. In addition, the TGI in the experiment with NCI-H226 lung, in the experiment on K-562 leukemia, in the experiment on MOLT-4 leukemia, with OVCAR-5 ovarian, in the experiment on TK-10 renal and with ACHN renal was above 100 µM in each case. The TGI in the experiment with SK-MEL-5 melanoma, with U251 CNS, with IGROV1 ovarian and with OVCAR-8 ovarian was above 100 µM throughout.

For `COc1ccc(N=c2ssc3c(=S)ssc23)cc1`, the TGI in the experiment on NCI-H226 lung was above 100 µM; in the experiment on K-562 leukemia, 22.5 µM; in the experiment with MOLT-4 leukemia it was 26.9 µM; with OVCAR-5 ovarian it was above 100 µM; in the experiment with TK-10 renal, above 100 µM; with ACHN renal, above 100 µM. In addition, the TGI with SK-MEL-5 melanoma worked out at 57.1 µM; with U251 CNS, 96.7 µM; in the experiment on IGROV1 ovarian, 26.3 µM; with OVCAR-8 ovarian it was 43.9 µM.

As for `O=C(N/N=C/c1ccc2c(c1)CCC2)c1ccccc1O`, the TGI in the experiment on NCI-H226 lung was 77.7 µM; in the experiment on K-562 leukemia, above 100 µM; in the experiment with MOLT-4 leukemia it was above 100 µM; in the experiment with OVCAR-5 ovarian, above 100 µM; in the experiment on TK-10 renal it was 51.1 µM; in the experiment with ACHN renal, 34.8 µM. For the same compound, the TGI in the experiment with SK-MEL-5 melanoma is above 100 µM; in the experiment on U251 CNS it was 33.7 µM; in the experiment on IGROV1 ovarian it was 55.9 µM; in the experiment with OVCAR-8 ovarian it was 71.9 µM.

As to `CC(CN1CCN(CCOCCO)CC1)CN1c2ccccc2Sc2ccc(Cl)cc21` (stereo not given), the GI50 in the experiment with NCI-H226 lung is 11.5 µM; with K-562 leukemia it was 1.96 µM; in the experiment on MOLT-4 leukemia, 2.49 µM; in the experiment on OVCAR-5 ovarian, 2.6 µM; in the experiment on TK-10 renal, 2.31 µM; in the experiment on ACHN renal it was 3.46 µM. Besides, the GI50 in the experiment on SK-MEL-5 melanoma was 1.69 µM; with U251 CNS, 2.19 µM; with IGROV1 ovarian, 3.36 µM; in the experiment with OVCAR-8 ovarian, 4.99 µM. In addition, the TGI in the experiment on NCI-H226 lung is 36.8 µM; in the experiment with K-562 leukemia it was 4.18 µM; in the experiment on MOLT-4 leukemia, 6.54 µM; in the experiment on OVCAR-5 ovarian it was 7.27 µM; in the experiment on TK-10 renal, 6.45 µM; in the experiment with ACHN renal, 12.6 µM. Further, the TGI with SK-MEL-5 melanoma turned out to be 3.07 µM; in the experiment with U251 CNS it was 6.04 µM; in the experiment on IGROV1 ovarian it was 13.3 µM; in the experiment with OVCAR-8 ovarian, 18.9 µM.

For the compound `Nc1ncnc2[nH]ncc12`, the GI50 in the experiment with NCI-H226 lung was 4.04 µM; in the experiment with K-562 leukemia, 0.279 µM; with MOLT-4 leukemia, 2.64 µM; in the experiment on OVCAR-5 ovarian, 0.765 µM; with TK-10 renal, 0.589 µM; with ACHN renal, 0.535 µM. The GI50 was 4.18 µM in the experiment on SK-MEL-5 melanoma, 4.83 µM in the experiment on U251 CNS, 0.744 µM in the experiment on IGROV1 ovarian and 0.285 µM in the experiment on OVCAR-8 ovarian. Further, the TGI in the experiment on NCI-H226 lung is above 100 µM; in the experiment on K-562 leukemia, above 100 µM; with MOLT-4 leukemia, above 100 µM; in the experiment with OVCAR-5 ovarian it was above 100 µM; in the experiment with TK-10 renal, above 47.6 µM; in the experiment on ACHN renal, above 100 µM. In addition, the TGI in the experiment with SK-MEL-5 melanoma is 24.5 µM; in the experiment with U251 CNS, above 100 µM; in the experiment with IGROV1 ovarian it was 4.62 µM; with OVCAR-8 ovarian, 16.6 µM.

On to `CC(C)(C)c1n[nH]c(=S)n(/N=C/c2ccc(F)c(Oc3ccccc3)c2)c1=O`, for which the GI50 with NCI-H226 lung was above 100 µM; in the experiment with K-562 leukemia, 42.1 µM; in the experiment with MOLT-4 leukemia, 39.8 µM; in the experiment with OVCAR-5 ovarian, 54.3 µM; in the experiment with TK-10 renal, 22.2 µM; in the experiment on ACHN renal it was 33.8 µM. The GI50 with SK-MEL-5 melanoma is 19.9 µM; with U251 CNS it was 39.2 µM; in the experiment with IGROV1 ovarian, 35.9 µM; with OVCAR-8 ovarian, 25.6 µM. For the same compound, the TGI is above 100 µM with NCI-H226 lung; above 100 µM in the experiment on K-562 leukemia; above 100 µM with MOLT-4 leukemia; above 100 µM with OVCAR-5 ovarian; 91.4 µM in the experiment with TK-10 renal; above 100 µM with ACHN renal. For the same compound, the TGI is 42.4 µM with SK-MEL-5 melanoma, above 100 µM with U251 CNS, above 100 µM with IGROV1 ovarian and above 100 µM in the experiment with OVCAR-8 ovarian.

Turning to `Nn1c(-c2ccccc2Cl)nc2ccccc2c1=O`, the TGI in the experiment with NCI-H226 lung, with K-562 leukemia, with MOLT-4 leukemia, in the experiment with OVCAR-5 ovarian, in the experiment with TK-10 renal and in the experiment on ACHN renal was above 100 µM in each case. Moreover, the TGI in the experiment with SK-MEL-5 melanoma, in the experiment with U251 CNS, with IGROV1 ovarian and in the experiment on OVCAR-8 ovarian was above 100 µM throughout.

As to `C[C@]12CC[C@H]3[C@@H](CCC4=CC(=O)CC[C@@H]43)[C@@H]1CC[C@@H]2OC(=O)CCc1ccccc1`, the GI50 was 16.5 µM with NCI-H226 lung; 18.8 µM in the experiment on K-562 leukemia; 17.5 µM with MOLT-4 leukemia; 42.8 µM in the experiment with OVCAR-5 ovarian; 14.5 µM in the experiment with TK-10 renal; 18.9 µM in the experiment on ACHN renal. Moreover, the GI50 with SK-MEL-5 melanoma is 13 µM; in the experiment on U251 CNS, 15.1 µM; with IGROV1 ovarian, 20.5 µM; with OVCAR-8 ovarian it was 21.5 µM. Besides, the TGI is 34 µM in the experiment with NCI-H226 lung; above 69 µM with K-562 leukemia; 49.6 µM in the experiment with MOLT-4 leukemia; above 81.5 µM in the experiment with OVCAR-5 ovarian; 33.7 µM in the experiment with TK-10 renal; 45.1 µM with ACHN renal. Also, the TGI in the experiment on SK-MEL-5 melanoma is 26 µM; with U251 CNS it was 28.4 µM; in the experiment with IGROV1 ovarian it was 42 µM; with OVCAR-8 ovarian, 49.3 µM.
